Test results reported in patent US20240207308A1, “METHOD FOR CULTURING DENDRITIC CELLS” (NANOFAENTECH CO., LTD., priority 2021, published 2024).

Experiments:
Assay type in all cases: cell-based, mouse
spleen dendritic cells = experiment: Distribution / clustering of cultured spleen dendritic cells by confocal microscope (DIC); conditions: 200 μg/mL added, dendritic cells 2×10^5/mL, cultured 6 hours
Experimental: Mouse spleen dendritic cells were obtained by adding EDTA-BSS (Balanced Salt Solution) buffer and collagenase solution (DMEM containing 100 units of collagenase type IV, medium containing low glucose) to spleens of female C57BL/6 mice and cutting it with surgical scissors, mixing the same with 6 mL of collagenase treatment solution, and incubating the mixture for 30 minutes. The separated whole spleen tissue was filtered using a 70 μm cell strainer (Falcon), followed by centrifugation at 1800 rpm for 5 minutes thus to separate the cells. Red blood cells were removed by adding red blood cell lysis buffer (Sigma-Aldrich) to the cells and washed twice with RPMI-1640 medium containing 10% fetal bovine serum (FBS). Dendritic cells were reacted with CD11c^+ antibody-bound microbeads and isolated using CD11c Microbeads Ultrapure ([…] Biotec, USA). In FIG. 1, primary dendritic cells isolated from the spleen were dispensed in a 48-well plate and cultured for 24 hours in a cell chamber maintained at 37° C. and 5% CO2, and the extent of clustering in which cells were distributed or gathered into single cells was evaluated. […] The number of single cells and intercellular clusters was measured using ImageJ software (NIH, Bethesda). * indicates statistical significance as P<0.05 or less compared with 0 h. […]

[1] = system: spleen primary dendritic cells; experiment: ELISA of TNF-α / IL-12p40 secreted by cultured spleen primary dendritic cells; conditions: 24 hours
Experimental: In FIG. 12, spleen primary dendritic cells were dispensed at 1×10^6/mL and cultured for 24 hours, and then a concentration of TNF-α secreted from these cells in the culture medium was measured. As a result, it was confirmed that the secretion increased in a time-dependent manner. The concentration of TNF-α was measured at 450 nm using an ELISA kit (R&D systems) and a microplate analyzer (Synergy H1, Biotek). However, when dendritic cells were dispensed at 2×10^5/mL, CD86 expression was increased but TNF-α secretion was not increased (results not presented). * indicates statistical significance as P<0.05 or less compared with 3 h.
In FIG. 13, spleen primary dendritic cells were dispensed at 1×10^6/mL and cultured for 24 hours. […] Furthermore, when P4, P5 and P6 peptides were added at a concentration of 200 μg/mL, respectively, the secretion of TNF-α was not inhibited.
Therefore, it could be seen that fibronectin has a disadvantage of inhibiting the activation by stimulants although can maintain the inactivation of spleen dendritic cells. * indicates statistical significance as P<0.05 or less compared to -LPS.
In FIG. 27, an ELISA kit (R&D systems) was used to measure the concentration of TNF-α secreted into the culture medium when spleen primary dendritic cells were dispensed at 2×10^5/mL and cultured for 24 hours. The concentration was determined at 450 nm by a microplate analyzer (Synergy H1, Biotek).

[2] = system: CD8+ T cells from OT-I transgenic mice; experiment: Proliferation of CFSE-stained OT-I CD8+ T cells co-cultured with OVA peptide-treated spleen dendritic cells; conditions: LPS-stimulated dendritic cells, co-culture 1:20, 4 days
Experimental: The spleen dendritic cells (2×10^6/mL) were self-activated in a 96-well plate for 24 hours, or self-activation was inhibited by adding a linker peptide, and then either not treated with LPS or stimulated with LPS for 24 hours. Dendritic cells were cultured with 10 μM ovalbumin (OVA) peptide SIINFEKL (InvivoGen, San Diego, California, USA) for 1 hour. CD8^+ T cells were isolated from OT-I transgenic mice using a CD8 T cell isolation kit (Miltenyi Biotec) and fluorescence-stained with 10 μM carboxyfluorescein succinimidyl ester (CFSE) for 10 minutes. After co-culture of CD8^+ T cells (1×10^5) and DCs (5×10^3) treated with OVA peptide at a ratio of 1:20 for 4 days, a proliferation level of T cells was measured in percentage of cells that are negative for CFSE fluorescence-staining.

Substance: fibronectin
- cell aggregation (distribution of cells) (spleen dendritic cells): significantly reduced
- secretion of TNF-α and IL-12p40 ([1]; 1 μg/mL LPS): did not produce these cytokines
- secretion of TNF-α ([1]; cells 1×10^6/mL, no stimulant): hardly measured
- TNF-α secretion ([1]; cells 2×10^5/mL, without LPS): hardly occurred
- T cell proliferation (cells negative for CFSE) [2]: very weak ability to induce T cell proliferation
